Source: paper PMC3047710 (Chemmedchem, 2010)

Key:
Format in all cases: biochemical
HsDHFR (human DHFR) [1] = molecular target: T1, HsDHFR (human DHFR) (Homo sapiens, UniProt P00374); experiment: DHFR inhibition assay
T1 sequence (P00374 1-187): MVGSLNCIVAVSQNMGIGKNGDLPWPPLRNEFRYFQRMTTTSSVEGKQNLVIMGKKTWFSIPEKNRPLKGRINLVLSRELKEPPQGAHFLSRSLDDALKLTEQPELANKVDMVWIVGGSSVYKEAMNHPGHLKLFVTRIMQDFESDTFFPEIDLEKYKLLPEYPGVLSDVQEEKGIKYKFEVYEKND

[2] = molecular target: T2, TbDHFR (T. brucei dihydrofolate reductase) (Trypanosoma brucei, UniProt Q27783); experiment: DHFR inhibition assay
[3] = molecular target: T2, TbDHFR (T. brucei dihydrofolate reductase); experiment: DHFR inhibition assay; settings: unreliable: sample contaminated with ~25% of compound 33
HsDHFR (human DHFR) [4] = molecular target: T1, HsDHFR (human DHFR); experiment: DHFR inhibition assay; settings: unreliable: sample contaminated with ~25% of compound 33
[5] = molecular target: T3, TbPTR1 (T. brucei pteridine reductase 1) (Trypanosoma brucei, UniProt O76290); experiment: HPLC-based PTR1 assay
T3 sequence (O76290 1-268): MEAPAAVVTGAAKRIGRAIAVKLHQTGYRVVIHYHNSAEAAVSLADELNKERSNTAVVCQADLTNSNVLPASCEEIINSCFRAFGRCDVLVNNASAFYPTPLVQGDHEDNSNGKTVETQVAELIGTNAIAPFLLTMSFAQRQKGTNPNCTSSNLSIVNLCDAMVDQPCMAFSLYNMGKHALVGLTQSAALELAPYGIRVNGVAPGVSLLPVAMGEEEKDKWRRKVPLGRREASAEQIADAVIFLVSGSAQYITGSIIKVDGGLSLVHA

[6] = molecular target: T4, endogenous PTR1 in clarified T. brucei lysate (Trypanosoma brucei, UniProt O76290); experiment: HPLC-based PTR1 assay
T4 sequence (O76290 1-268): T3 sequence (O76290 1-268)

T2 sequence (Q27783 whole entry): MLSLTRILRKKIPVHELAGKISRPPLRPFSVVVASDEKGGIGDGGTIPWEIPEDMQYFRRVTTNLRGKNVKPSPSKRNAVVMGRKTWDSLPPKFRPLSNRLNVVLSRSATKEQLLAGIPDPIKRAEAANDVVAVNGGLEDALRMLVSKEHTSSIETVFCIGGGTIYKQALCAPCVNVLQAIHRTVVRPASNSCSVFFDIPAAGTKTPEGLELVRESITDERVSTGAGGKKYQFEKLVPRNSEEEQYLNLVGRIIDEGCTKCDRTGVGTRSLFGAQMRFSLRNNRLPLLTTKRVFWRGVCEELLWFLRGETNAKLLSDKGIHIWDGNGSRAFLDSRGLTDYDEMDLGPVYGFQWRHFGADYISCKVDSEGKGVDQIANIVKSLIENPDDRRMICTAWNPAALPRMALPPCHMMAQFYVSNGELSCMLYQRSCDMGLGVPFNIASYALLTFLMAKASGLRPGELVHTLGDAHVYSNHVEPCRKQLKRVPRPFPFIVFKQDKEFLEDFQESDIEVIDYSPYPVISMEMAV

| IC50 (HsDHFR (human DHFR) [1]) [µM] | IC50 [2] [µM] | TbDHFR IC50 [3] [µM] | HsDHFR IC50 (HsDHFR (human DHFR) [4]) [µM] | IC50 [5] [µM] | IC50 [6] [µM] | SMILES |
| --- | --- | --- | --- | --- | --- | --- |
| > 50 | > 30 |  |  |  |  | Nc1nc2cccc(Cl)c2n1Cc1ccc(Cl)c(Cl)c1 [compound 29] |
| > 50 | > 50 |  |  |  |  | Nc1nc2c(OCc3ccccc3)cccc2n1Cc1ccc(Cl)c(Cl)c1 [compound 26] |
|  |  | > 30 | > 50 |  |  | COc1cccc2c1nc(N)n2Cc1ccc(Cl)c(Cl)c1 [compound 28] |
| > 50 | > 30 |  |  |  |  | COc1cccc2nc(N)n(Cc3ccc(Cl)c(Cl)c3)c12 [compound 33] |
| > 50 | > 50 |  |  |  |  | Nc1nc2cccc(OCc3ccccc3)c2n1Cc1ccc(Cl)c(Cl)c1 [compound 31] |

Further lines, the compound ahead of its results:

| SMILES | IC50 (HsDHFR (human DHFR) [1]) [µM] | IC50 [2] [µM] | TbDHFR IC50 [3] [µM] | HsDHFR IC50 (HsDHFR (human DHFR) [4]) [µM] | IC50 [5] [µM] | IC50 [6] [µM] |
| --- | --- | --- | --- | --- | --- | --- |
| Cc1cc2nc(N)n(Cc3ccc(Cl)c(Cl)c3)c2cc1C [compound 34] | > 30 | > 30 |  |  |  |  |
| Nc1nc2c(-c3ccccc3)cccc2n1Cc1ccc(Cl)c(Cl)c1 [compound 27] | > 30 | > 30 |  |  |  |  |
| Nc1nc2c(Cl)cccc2n1Cc1ccc(Cl)c(Cl)c1 [compound 24] | > 50 | > 30 |  |  |  |  |
| Nc1nc2ccccc2n1Cc1ccc(Cl)c(Cl)c1 [compound 11] | > 50 | > 50 |  |  |  |  |
| CCCOc1cccc2nc(N)n(Cc3ccc(Cl)c(Cl)c3)c12 [compound 30] | > 50 | > 30 |  |  |  |  |
| Nc1nc2cccc(-c3ccccc3)c2n1Cc1ccc(Cl)c(Cl)c1 [compound 32] | > 50 | > 50 |  |  | 0.00099 ± 0.00013 | 0.00088 ± 0.00013 |
| CCCOc1cccc2c1nc(N)n2Cc1ccc(Cl)c(Cl)c1 [compound 25] | > 50 | > 30 |  |  |  |  |
